Legend:
Type in all cases: in vivo
[1] = test system: blackgrass (Aloepecurus myosuroides); test: post-emergence herbicidal activity, blackgrass; conditions: Alopecurus myosuroides, 1 Kg/Ha, about fourteen days, read-out: post-emergence herbicidal activity (% control) ALOMY
Method in brief: (§1)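 Application rate was 1 Kg/Ha, sprayed post-emergence from a water/acetone solution onto flat-grown plants. Injury is expressed as percent control, 100 meaning complete control, assessed roughly two weeks later.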

[2] = test system: velvetleaf (Abutilon theophrasti); test: pre-emergence herbicidal activity, velvetleaf; conditions: 1 kg/Ha, about fourteen days, read-out: pre-emergence herbicidal activity (% control) ABUTH
Method in brief: (§2)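 Seeds sown in soil flats and sprayed pre-emergence with a water/acetone solution of test compound at 1 kg/Ha; untreated controls kept alongside. Phytotoxicity scored after about fourteen days as percent control, 0 being no effect and 100 complete control.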

[3] = test system: common cocklebur (Xanthium strumarium L.); test: post-emergence herbicidal activity, cocklebur; conditions: 1 Kg/Ha, about fourteen days, read-out: post-emergence herbicidal activity (% control) XANPE
Method in brief: as §1

[4] = test system: wheat (Triticum aestivum var. Lew); test: pre-emergence herbicidal activity, wheat; conditions: 1 kg/Ha, about fourteen days, read-out: pre-emergence herbicidal activity (% control) WHT
Method in brief: as §2

[5] = test system: field corn (Zea mays var. Pioneer 3732); test: post-emergence herbicidal activity, corn; conditions: 1 Kg/Ha, about fourteen days, read-out: post-emergence herbicidal activity (% control) CRN
Method in brief: as §1

[6] = test system: morningglory (Ipomea lacunosa or Ipomea hederacea); test: pre-emergence herbicidal activity, morningglory; conditions: Ipomoea, 1 kg/Ha, about fourteen days, read-out: pre-emergence herbicidal activity (% control) IPOSS
Method in brief: as §2

[7] = test system: green foxtail (Setaria viridis); test: post-emergence herbicidal activity, green foxtail; conditions: 1 Kg/Ha, about fourteen days, read-out: post-emergence herbicidal activity (% control) SETVI
Method in brief: as §1

[8] = test system: common chickweed (Stellaria media); test: post-emergence herbicidal activity, chickweed; conditions: 1 Kg/Ha, about fourteen days, read-out: post-emergence herbicidal activity (% control) STEME
Method in brief: as §1

[9] = test system: common chickweed (Stellaria media); test: pre-emergence herbicidal activity, chickweed; conditions: 1 kg/Ha, about fourteen days, read-out: pre-emergence herbicidal activity (% control) STEME
Method in brief: as §2

[10] = test system: common cocklebur (Xanthium strumarium L.); test: pre-emergence herbicidal activity, cocklebur; conditions: 1 kg/Ha, about fourteen days, read-out: pre-emergence herbicidal activity (% control) XANPE
Method in brief: as §2

[11] = test system: blackgrass (Aloepecurus myosuroides); test: pre-emergence herbicidal activity, blackgrass; conditions: Alopecurus myosuroides, 1 kg/Ha, about fourteen days, read-out: pre-emergence herbicidal activity (% control) ALOMY
Method in brief: as §2

[12] = test system: Johnsongrass (Sorghum halepense); test: post-emergence herbicidal activity, johnsongrass; conditions: 1 Kg/Ha, about fourteen days, read-out: post-emergence herbicidal activity (% control) SORHA
Method in brief: as §1

[13] = test system: green foxtail (Setaria viridis); test: pre-emergence herbicidal activity, green foxtail; conditions: 1 kg/Ha, about fourteen days, read-out: pre-emergence herbicidal activity (% control) SETVI
Method in brief: as §2

[14] = test system: Johnsongrass (Sorghum halepense); test: pre-emergence herbicidal activity, johnsongrass; conditions: 1 kg/Ha, about fourteen days, read-out: pre-emergence herbicidal activity (% control) SORHA
Method in brief: as §2

[15] = test system: field corn (Zea mays var. Pioneer 3732); test: pre-emergence herbicidal activity, corn; conditions: 1 kg/Ha, about fourteen days, read-out: pre-emergence herbicidal activity (% control) CRN
Method in brief: as §2

[16] = test system: velvetleaf (Abutilon theophrasti); test: post-emergence herbicidal activity, velvetleaf; conditions: 1 Kg/Ha, about fourteen days, read-out: post-emergence herbicidal activity (% control) ABUTH
Method in brief: as §1

[17] = test system: wheat (Triticum aestivum var. Lew); test: post-emergence herbicidal activity, wheat; conditions: 1 Kg/Ha, about fourteen days, read-out: post-emergence herbicidal activity (% control) WHT
Method in brief: as §1

[18] = test system: morningglory (Ipomea lacunosa or Ipomea hederacea); test: post-emergence herbicidal activity, morningglory; conditions: Ipomoea, 1 Kg/Ha, about fourteen days, read-out: post-emergence herbicidal activity (% control) IPOSS
Method in brief: as §1

[19] = test system: soybean (Glycine max -- var. Winchester); test: pre-emergence herbicidal activity, soybean; conditions: 1 kg/Ha, about fourteen days, read-out: pre-emergence herbicidal activity (% control) SOY
Method in brief: as §2

[20] = test system: soybean (Glycine max -- var. Winchester); test: post-emergence herbicidal activity, soybean; conditions: 1 Kg/Ha, about fourteen days, read-out: post-emergence herbicidal activity (% control) SOY
Method in brief: as §1

Measured: activity at 1000 g/ha

Cn1c(C(F)(F)F)cc(=O)n(-c2c(Cl)cc(Cl)c3c2CN(C(C)(C)C)C3=O)c1=O [Compound 6]
80%: [17]
95%: [18]
90%: [20]
100%: all other assays above
